The text below walks through data of patent US10040759B2, “Substituted azetidinyl compounds as GlyT1 inhibitors” (DART NEUROSCIENCE (CAYMAN) LTD., priority 2014, dated 2018).

For this experiment, the target named is T1, GlyT1 (Homo sapiens, UniProt P48067).
T1 construct: expressed in transfected cells
T1 sequence (P48067 1-706): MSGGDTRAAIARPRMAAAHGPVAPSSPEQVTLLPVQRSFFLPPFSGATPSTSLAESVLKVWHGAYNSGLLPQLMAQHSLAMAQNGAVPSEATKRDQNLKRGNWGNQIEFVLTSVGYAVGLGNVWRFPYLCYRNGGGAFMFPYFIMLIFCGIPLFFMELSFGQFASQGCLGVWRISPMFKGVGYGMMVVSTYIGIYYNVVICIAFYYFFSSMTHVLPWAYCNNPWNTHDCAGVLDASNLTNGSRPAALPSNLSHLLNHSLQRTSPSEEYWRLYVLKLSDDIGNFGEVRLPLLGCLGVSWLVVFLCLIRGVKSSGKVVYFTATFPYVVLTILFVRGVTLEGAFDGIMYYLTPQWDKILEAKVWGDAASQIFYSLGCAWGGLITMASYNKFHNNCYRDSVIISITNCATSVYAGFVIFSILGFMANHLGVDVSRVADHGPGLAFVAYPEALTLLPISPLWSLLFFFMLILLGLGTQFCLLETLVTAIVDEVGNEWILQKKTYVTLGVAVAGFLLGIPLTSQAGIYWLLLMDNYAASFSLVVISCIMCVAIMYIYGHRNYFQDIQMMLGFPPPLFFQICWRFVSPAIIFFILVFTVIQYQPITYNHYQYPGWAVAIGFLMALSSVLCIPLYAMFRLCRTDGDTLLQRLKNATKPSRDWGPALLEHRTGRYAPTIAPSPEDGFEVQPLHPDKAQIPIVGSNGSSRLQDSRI
As to the kind of experiment: Glycine Transporter 1 (GlyT1) uptake assay, scintillation proximity assay of [14C]-glycine uptake. The format is cell-based. The note with it: [14C]-glycine uptake; read-out: GlyT1 (pIC50) (converted). The method in brief:
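IC50 values were derived by four-parameter logistic fitting of counts. The 2× compound solutions were made by 1:100 dilution into HBSS of DMSO serial dilutions.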
A general note: In a scintillation proximity assay essentially only radioactivity close to the scintillant gives light.
For `COc1c(S(C)(=O)=O)ccc(O[C@@H](C)C(F)(F)F)c1C(=O)N1CC(c2ccc(F)cc2Cl)C1` [Example 145, 3-(2-Chloro-4-fluorophenyl)-1-(3-methanesulfonyl-2-methoxy-6-{[(2S)-1,1,1-trifluoropropan-2-yl]oxy}benzoyl)azetidine], the IC50 is 100 to 1000 nM. For `COc1c(S(C)(=O)=O)ccc(O[C@@H](C)C(F)(F)F)c1C(=O)N1CC(c2ccc(C(F)(F)F)cc2Cl)C1` [Example 146, 3-[2-Chloro-4-(trifluoromethyl)phenyl]-1-(3-methanesulfonyl-2-methoxy-6-{[(2S)-1,1,1-trifluoropropan-2-yl]oxy}benzoyl)azetidine], the IC50 is under 100 nM. As to `COc1c(S(C)(=O)=O)ccc(O[C@@H](C)C(F)(F)F)c1C(=O)N1CC(c2ccc(C(F)F)cc2Cl)C1` [Example 147, 3-[2-Chloro-4-(difluoromethyl)phenyl]-1-(3-methanesulfonyl-2-methoxy-6-{[(2S)-1,1,1-trifluoropropan-2-yl]oxy}benzoyl)azetidine], the IC50 was under 100 nM. Regarding `COc1c(S(C)(=O)=O)ccc(O[C@@H](C)C(F)(F)F)c1C(=O)N1CC(c2ccc([N+](=O)[O-])cc2)C1` [Example 148, 1-(3-Methanesulfonyl-2-methoxy-6-{[(2S)-1,1,1-trifluoropropan-2-yl]oxy}benzoyl)-3-(4-nitrophenyl)azetidine], the IC50 is under 100 nM. On to `COc1c(S(C)(=O)=O)ccc(O[C@H](C)C(F)(F)F)c1C(=O)N1CC(Cc2ccc(C(F)(F)F)cc2)C1` [Example 149, 1-(3-Methanesulfonyl-2-methoxy-6-{[(2R)-1,1,1-trifluoropropan-2-yl]oxy}benzoyl)-3-{[4-(trifluoromethyl)phenyl]methyl}azetidine], for which the IC50 is under 100 nM. In the case of `COc1c(S(C)(=O)=O)ccc(O[C@@H](C)C(F)(F)F)c1C(=O)N1CC(c2cc(F)c(F)c(F)c2)C1` [Example 150, 1-(3-Methanesulfonyl-2-methoxy-6-{[(2S)-1,1,1-trifluoropropan-2-yl]oxy}benzoyl)-3-(3,4,5-trifluorophenyl)azetidine], the IC50 is under 100 nM. In the case of `COc1c(C#N)ccc(C2CC(F)(F)C2)c1C(=O)N1CC(c2ccc(C(F)(F)F)cn2)C1` [Example 151, 4-(3,3-Difluorocyclobutyl)-2-methoxy-3-{3-[5-(trifluoromethyl)pyridin-2-yl]azetidine-1-carbonyl}benzonitrile], the IC50 is 100 to 1000 nM. For the compound `COc1c(C#N)ccc(C2CC(F)(F)C2)c1C(=O)N1CC(c2ncc(C(F)(F)F)cc2Cl)C1` [Example 152, 3-{3-[3-Chloro-5-(trifluoromethyl)pyridin-2-yl]azetidine-1-carbonyl}-4-(3,3-difluorocyclobutyl)-2-methoxybenzonitrile], the IC50 was under 100 nM. The result for `COc1c(C#N)ccc(C2CC(F)(F)C2)c1C(=O)N1CC(c2ncc(C(F)(F)F)cc2F)C1` [Example 153, 4-(3,3-Difluorocyclobutyl)-3-{3-[3-fluoro-5-(trifluoromethyl)pyridin-2-yl]azetidine-1-carbonyl}-2-methoxybenzonitrile] reads under 100 nM. In the case of `COc1c(S(C)(=O)=O)ccc(O[C@@H](C)C(F)(F)F)c1C(=O)N1CC(c2cc(F)c(F)cc2F)C1` [Example 154, 1-(3-Methanesulfonyl-2-methoxy-6-{[(2S)-1,1,1-trifluoropropan-2-yl]oxy}benzoyl)-3-(2,4,5-trifluorophenyl)azetidine], the IC50 is under 100 nM.

On to `COc1c(S(C)(=O)=O)ccc(O[C@@H](C)C(F)(F)F)c1C(=O)N1CC(c2ccc(F)c(F)c2F)C1` [Example 155, 1-(3-Methanesulfonyl-2-methoxy-6-{[(2S)-1,1,1-trifluoropropan-2-yl]oxy}benzoyl)-3-(2,3,4-trifluorophenyl)azetidine], for which the IC50 was under 100 nM.

For the compound `COc1c(S(C)(=O)=O)ccc(O[C@@H](C)C(F)(F)F)c1C(=O)N1CC(c2cc(F)cc(F)c2F)C1` [Example 156, 1-(3-Methanesulfonyl-2-methoxy-6-{[(2S)-1,1,1-trifluoropropan-2-yl]oxy}benzoyl)-3-(2,3,5-trifluorophenyl)azetidine], the IC50 is under 100 nM. As to `COc1c(S(C)(=O)=O)ccc(O[C@@H](C)C(F)(F)F)c1C(=O)N1CC(c2cccc(F)c2F)C1` [Example 157, 3-(2,3-Difluorophenyl)-1-(3-methanesulfonyl-2-methoxy-6-{[(2S)-1,1,1-trifluoropropan-2-yl]oxy}benzoyl)azetidine], the IC50 was under 100 nM. As to `COc1c(C#N)ccc(O[C@@H](C)C(F)(F)F)c1C(=O)N1CC(c2ccc(C3CCOCC3)cc2)C1` [Example 158, 2-Methoxy-3-{3-[4-(oxan-4-yl)phenyl]azetidine-1-carbonyl}-4-{[(2S)-1,1,1-trifluoropropan-2-yl]oxy}benzonitrile], the IC50 is under 100 nM. The result for `COc1c(C#N)ccc(O[C@@H](C)C(F)(F)F)c1C(=O)N1CC(c2ccc(C3CCOCC3)cn2)C1` [Example 159, 2-Methoxy-3-{3-[5-(oxan-4-yl)pyridin-2-yl]azetidine-1-carbonyl}-4-{[(2S)-1,1,1-trifluoropropan-2-yl]oxy}benzonitrile] reads under 100 nM; that for `COc1c(C#N)ccc(O[C@@H](C)C(F)(F)F)c1C(=O)N1CC(c2ccc(C3CCOC(C)(C)C3)cc2)C1` (stereo partly drawn) [Example 160, 3-{3-[4-(2,2-Dimethyloxan-4-yl)phenyl]azetidine-1-carbonyl}-2-methoxy-4-{[(2S)-1,1,1-trifluoropropan-2-yl]oxy}benzonitrile], under 100 nM; that for `COc1c(C#N)ccc(O[C@H](C)C(F)(F)F)c1C(=O)N1CC(c2ccc(C3CCOCC3)cc2)C1` [Example 161, 2-Methoxy-3-{3-[4-(oxan-4-yl)phenyl]azetidine-1-carbonyl}-4-{[(2R)-1,1,1-trifluoropropan-2-yl]oxy}benzonitrile], under 100 nM.

Turning to `COc1c(C#N)ccc(C2(F)CCC2)c1C(=O)N1CC(c2ccc(C3CCOCC3)cn2)C1` [Example 162, 4-(1-Fluorocyclobutyl)-2-methoxy-3-{3-[5-(oxan-4-yl)pyridin-2-yl]azetidine-1-carbonyl}benzonitrile], the IC50 is 100 to 1000 nM.

Turning to `COc1c(C#N)ccc(O[C@@H](C)C(F)(F)F)c1C(=O)N1CC(c2ccc(C3CCOCC3)c(F)c2)C1` [Example 163, 3-{3-[3-Fluoro-4-(oxan-4-yl)phenyl]azetidine-1-carbonyl}-2-methoxy-4-{[(2S)-1,1,1-trifluoropropan-2-yl]oxy}benzonitrile], the IC50 was under 100 nM. As to `COc1c(S(C)(=O)=O)ccc(O[C@H](C)C(F)(F)F)c1C(=O)N1CC(c2ccc(C3CCOCC3)cc2)C1` [Example 164, 1-(3-Methanesulfonyl-2-methoxy-6-{[(2R)-1,1,1-trifluoropropan-2-yl]oxy}benzoyl)-3-[4-(oxan-4-yl)phenyl]azetidine], the IC50 was under 100 nM. For `CCOc1ccc(C#N)c(OC)c1C(=O)N1CC(c2ccc(C3CCOCC3)cn2)C1` [Example 165, 4-Ethoxy-2-methoxy-3-{3-[5-(oxan-4-yl)pyridin-2-yl]azetidine-1-carbonyl}benzonitrile], the IC50 is under 100 nM. As to `COc1c(C#N)ccc(OC(C)C)c1C(=O)N1CC(c2ccc(C3CCOCC3)cn2)C1` [Example 166, 2-Methoxy-3-{3-[5-(oxan-4-yl)pyridin-2-yl]azetidine-1-carbonyl}-4-(propan-2-yloxy)benzonitrile], the IC50 is 100 to 1000 nM. Consider `COc1c(S(C)(=O)=O)ccc(O[C@H](C)C(F)(F)F)c1C(=O)N1CC(c2ccc(C3CCC(F)(F)CC3)cc2)C1` [Example 167, 3-[4-(4,4-Difluorocyclohexyl)phenyl]-1-(3-methanesulfonyl-2-methoxy-6-{[(2R)-1,1,1-trifluoropropan-2-yl]oxy}benzoyl)azetidine], for which the IC50 was under 100 nM. Regarding `COc1c(S(C)(=O)=O)ccc(O[C@@H](C)C(F)(F)F)c1C(=O)N1CC(c2ccc(C3CCOCC3)cc2)C1` [Example 168, 1-(3-Methanesulfonyl-2-methoxy-6-{[(2S)-1,1,1-trifluoropropan-2-yl]oxy}benzoyl)-3-[4-(oxan-4-yl)phenyl]azetidine], the IC50 is under 100 nM. `C[C@H](Oc1ccc(C#N)c(Cl)c1C(=O)N1CC(c2ccc(C3CCOCC3)cn2)C1)C(F)(F)F` [Example 169, 2-Chloro-3-{3-[5-(oxan-4-yl)pyridin-2-yl]azetidine-1-carbonyl}-4-{[(2S)-1,1,1-trifluoropropan-2-yl]oxy}benzonitrile]: the IC50 was under 100 nM. Turning to `C[C@@H](Oc1ccc(C#N)c(Cl)c1C(=O)N1CC(c2ccc(C3CCOCC3)cn2)C1)C(F)(F)F` [Example 170, 2-Chloro-3-{3-[5-(oxan-4-yl)pyridin-2-yl]azetidine-1-carbonyl}-4-{[(2R)-1,1,1-trifluoropropan-2-yl]oxy}benzonitrile], the IC50 was under 100 nM. The result for `COc1c(C#N)ccc(O[C@@H](C)C(F)(F)F)c1C(=O)N1CC(c2ccc(C3CCC(F)(F)CC3)cn2)C1` [Example 171, 3-{3-[5-(4,4-Difluorocyclohexyl)pyridin-2-yl]azetidine-1-carbonyl}-2-methoxy-4-{[(2S)-1,1,1-trifluoropropan-2-yl]oxy}benzonitrile] reads under 100 nM.
